This is an account of results in patent publication US20150216167A1 (Heinrich Heine Universitat Dusseldorf, priority 2011, published 2015).

Data set [1] concerns the target T1, C4-PEPC (PEP carboxylase from F. trinervia) (Flaveria trinervia, UniProt P30694).
T1 construct: histidine tag; made in house; host or cells: E. coli
T1 sequence (P30694 1-966): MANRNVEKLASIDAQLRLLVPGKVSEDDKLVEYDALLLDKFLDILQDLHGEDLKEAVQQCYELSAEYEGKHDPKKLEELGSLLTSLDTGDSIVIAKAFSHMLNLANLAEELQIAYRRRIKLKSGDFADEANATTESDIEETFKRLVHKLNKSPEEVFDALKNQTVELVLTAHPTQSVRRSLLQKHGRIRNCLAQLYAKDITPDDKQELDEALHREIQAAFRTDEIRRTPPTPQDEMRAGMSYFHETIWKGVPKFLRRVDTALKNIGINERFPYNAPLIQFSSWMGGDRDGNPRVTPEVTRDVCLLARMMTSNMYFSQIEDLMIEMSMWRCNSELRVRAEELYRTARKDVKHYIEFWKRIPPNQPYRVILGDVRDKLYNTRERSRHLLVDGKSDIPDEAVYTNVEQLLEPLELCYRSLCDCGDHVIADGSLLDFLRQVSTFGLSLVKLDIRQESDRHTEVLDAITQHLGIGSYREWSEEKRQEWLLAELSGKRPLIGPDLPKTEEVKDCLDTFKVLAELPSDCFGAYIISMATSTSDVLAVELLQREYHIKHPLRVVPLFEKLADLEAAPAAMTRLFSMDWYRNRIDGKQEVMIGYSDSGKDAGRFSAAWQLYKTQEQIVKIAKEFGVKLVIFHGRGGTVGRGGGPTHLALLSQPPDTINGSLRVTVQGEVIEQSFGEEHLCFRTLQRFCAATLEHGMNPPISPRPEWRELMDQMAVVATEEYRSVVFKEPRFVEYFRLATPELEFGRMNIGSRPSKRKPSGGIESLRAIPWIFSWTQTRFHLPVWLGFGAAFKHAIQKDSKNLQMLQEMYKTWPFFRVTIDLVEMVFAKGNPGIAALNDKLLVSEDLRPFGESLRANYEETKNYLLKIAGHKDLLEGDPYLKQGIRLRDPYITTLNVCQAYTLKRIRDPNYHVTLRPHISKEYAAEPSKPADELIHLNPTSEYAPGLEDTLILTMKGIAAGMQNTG
The experiment in a line: Spectrophotometric coupled assay with malate dehydrogenase, purified PEP carboxylases. Format: biochemical. Conditions: C4 (F. trinervia) versus C3 (F. pringlei) enzyme. An excerpt: Inhibition of purified PEP carboxylases from F. pringlei and F. trinervia by compounds selected from the VDS was monitored by a spectrophotometric coupled assay with malate dehydrogenase which reduces the oxaloacetate formed by PEP carboxylase to malate. The simultaneous oxidation of NADH is followed at 340 nm with standard optical equipment. The concentration of the inhibitors selected from the VDS was varied in the coupled assay to determine the half maximal inhibitory concentration (IC50).
Inhibition of purified PEP carboxylases from F. pringlei and F. trinervia by compounds selected from the VDS was monitored by a spectrophotometric coupled assay with malate dehydrogenase which reduces the oxaloacetate formed by PEP carboxylase to malate. The simultaneous oxidation of NADH is followed at 340 nm with standard optical equipment. The concentration of the inhibitors selected from the VDS was varied in the coupled assay to determine the half maximal inhibitory concentration (1050).

The next data set concerns PEP carboxylase. Conditions: Pairoba et al. (1996); cited from earlier work.
For data set [2] the following is noted: high clog values; cited from earlier work.
For the next data set, the system named is bile salt hydrolase. The following applies: cited from earlier work.
For data set [3], the system named is pyruvate phosphate dikinase (PPDK). The following applies: cited from earlier work.

Consider `Oc1cc(O)c2c(c1)O[C@H](c1ccc(O)c(O)c1)[C@@H](O)C2` [compound 1, (2R,3S)-2-(3,4-dihydroxyphenyl)-3,4-dihydro-2H-chromene-3,5,7-triol], for which, in data set [1] (measured at 50 micromolar and 500 micromolar, FIG. 2), the “Selective Inhibition of a C4-PEPC” value is given as “Selective Inhibition”.

On to `Nc1nc2ncc(CNc3ccc(C(=O)N[C@@H](CCC(=O)O)C(=O)O)cc3)nc2c(=O)[nH]1` [compound 4, Folic Acid], for which the “Selective Inhibition of a C4-PEPC” value in data set [1] (measured at 0.025 mM, FIG. 3) is on record as “Selective Inhibition”.

Turning to `O=c1c(O)c(-c2ccc(O)c(O)c2)oc2cc(O)ccc12` [fisetin], the “inhibition of PEP carboxylase from C4 plant Amaranthus viridis” value (“inhibition of PEP carboxylase” below) with PEP carboxylase is “inhibited”.

Take `C=C1CCC[C@H]2[C@](C)(CC3=C(O)C(=O)C=C(OC)C3=O)[C@@H](C)CC[C@]12C` [ilimaquinone]: in data set [2], the solubility in water entry was “low solubility in water”.

With `O=c1c(O)c(-c2ccc(O)cc2)oc2cc(O)cc(O)c12` [kaempferol], the “inhibition of PEP carboxylase” value in the data set with PEP carboxylase is given as “inhibited”.

As to `O=c1c(O)c(-c2ccc(O)cc2O)oc2cc(O)cc(O)c12` [morin], the “inhibition of PEP carboxylase” value in the data set with PEP carboxylase is given as “inhibited”.

Regarding `O=c1c(O)c(-c2cc(O)c(O)c(O)c2)oc2cc(O)cc(O)c12` [myricetin], the “inhibition of PEP carboxylase” value with PEP carboxylase is reported as “inhibited”.

For the compound `O=c1c(O)c(-c2ccc(O)c(O)c2)oc2cc(O)cc(O)c12` [quercetin], the “inhibition of PEP carboxylase” value with PEP carboxylase is “inhibited”.

With `C/C=C(\C)c1cc(O)c(C)c2c1Oc1cc(O)cc(C)c1C(=O)O2` [unguinol], the “inhibits the enzyme bile salt hydrolase” value in the data set on bile salt hydrolase is recorded as “inhibits”. In data set [3] (PPDK from C4 plants maize, millet and proso millet), the “selective inhibitors of PPDK” value is reported as “selective inhibitors”. The IC50 in data set [3] (isolated enzyme, read-out: half maximal inhibitory concentration (1050)) was 40 µM.

With baicalein/baicalin, in the data set with PEP carboxylase, the “inhibition of PEP carboxylase” value is listed as “inhibited”.
